Laboratory results taken from the NIST ThermoML archive (doi:10.1021/je050183a).
Numbers after ± are expanded uncertainties.

Experiments:
[1] = xn = mol fraction of the nth substance listed; details: 101 kPa, Liquid; for viscosity: Capillary tube (Ostwald / Ubbelohde) method; for speed of sound: Linear variable-path acoustic interferometer; for mass density: Pycnometric method
[2] = refractive index (Na D-line) (dimensionless); xn = mol fraction of the nth substance listed; details: 298.15 K, 101 kPa, Liquid, Standard Abbe refractometry

CC1OC(C)OC(C)O1 (stereo not drawn) [2,4,6-trimethyl-1,3,5-trioxane] + COC(=O)OC
[1]
Details	mass density, 288.15 K [kg/m3]	mass density, 298.15 K [kg/m3]	speed of sound, 288.15 K [m/s]	speed of sound, 298.15 K [m/s]	viscosity, 288.15 K [mPa·s]	viscosity, 298.15 K [mPa·s]
x1 = 0.0204	1074.19 ± 1.5	1060.99 ± 1.5	1242.2 ± 2.7	1197.4 ± 2.7	0.66 ± 0.009	0.59 ± 0.008
x1 = 0.0409	1071.96 ± 1.5	1058.89 ± 1.5	1242.3 ± 2.7	1197.3 ± 2.7	0.673 ± 0.009	0.6 ± 0.008
x1 = 0.059	1070.03 ± 1.5	1057.07 ± 1.4	1242.4 ± 2.7	1197.3 ± 2.7	0.684 ± 0.009	0.609 ± 0.008
x1 = 0.0845	1067.35 ± 1.5	1054.53 ± 1.4	1242.4 ± 2.7	1197 ± 2.7	0.699 ± 0.009	0.62 ± 0.008
x1 = 0.1091	1064.81 ± 1.4	1052.11 ± 1.4	1242.3 ± 2.7	1196.8 ± 2.7	0.713 ± 0.009	0.63 ± 0.008
x1 = 0.2258	1053.37 ± 1.4	1041.01 ± 1.4	1240.4 ± 2.7	1194.6 ± 2.7	0.77 ± 0.01	0.673 ± 0.009
x1 = 0.3012	1046.5 ± 1.4	1034.2 ± 1.4	1238.4 ± 2.7	1192.7 ± 2.7	0.803 ± 0.011	0.697 ± 0.009
x1 = 0.3994	1038.14 ± 1.4	1025.83 ± 1.4	1235 ± 2.7	1189.6 ± 2.7	0.844 ± 0.011	0.727 ± 0.01
x1 = 0.494	1030.68 ± 1.4	1018.35 ± 1.4	1231.2 ± 2.7	1186 ± 2.7	0.887 ± 0.012	0.757 ± 0.01
x1 = 0.5906	1023.62 ± 1.4	1011.31 ± 1.4	1227.2 ± 2.7	1182.3 ± 2.7	0.936 ± 0.012	0.793 ± 0.011
x1 = 0.696	1016.52 ± 1.4	1004.26 ± 1.4	1223.1 ± 2.7	1178.5 ± 2.6	1.002 ± 0.013	0.84 ± 0.011
x1 = 0.808	1009.63 ± 1.4	997.47 ± 1.4	1219.3 ± 2.7	1175.3 ± 2.6	1.091 ± 0.014	0.906 ± 0.012
x1 = 0.9289	1002.87 ± 1.4	991.2 ± 1.3	1216.7 ± 2.7	1173.1 ± 2.6	1.214 ± 0.016	0.998 ± 0.013
x1 = 1	999.69 ± 1.3	988.35 ± 1.3	1217.7 ± 2.7	1174.5 ± 2.6	1.374 ± 0.018	1.107 ± 0.015

[2]
Details	refractive index
x1 = 0.0204	1.3673 ± 0.0008
x1 = 0.0409	1.3686 ± 0.0008
x1 = 0.059	1.3696 ± 0.0008
x1 = 0.0845	1.3711 ± 0.0008
x1 = 0.1091	1.3725 ± 0.0008
x1 = 0.2258	1.3786 ± 0.0008
x1 = 0.3012	1.382 ± 0.0008
x1 = 0.3994	1.386 ± 0.0008
x1 = 0.494	1.3894 ± 0.0008
x1 = 0.5906	1.3925 ± 0.0008
x1 = 0.696	1.3956 ± 0.0008
x1 = 0.808	1.3985 ± 0.0008
x1 = 0.9289	1.4014 ± 0.0008
x1 = 1	1.4029 ± 0.0008
